This passage reports Kd results from PubChem BioAssay AID1549 (Sanford-Burnham Center for Chemical Genomics, 2009).

The structures appear in SMILES notation. Activity calls are given as the source filed them. No rule for the calls is given here.

The target in the assay is Influenza A virus M2 proton channel (A/TW/4845/1999 H1N1). The assay is described as follows: M2 proton channel binding, NMR based, influenza A virus H1N1 strain (AID 1549). To be noted: NMR binding screen, M2 protein.
On to `O=C(NC(=O)N1CCOCC1)c1ccccc1`, for which the Kd (as a rule, the constant that tells how readily two partners part at equilibrium) is > 4 mM (inactive).
As for `Cc1nnc(NCCN2CCOCC2)[nH]c1=O`, the Kd was > 4 mM (inactive).
Consider `O=C(OCc1c(Cl)cccc1Cl)c1cnccn1`, for which the Kd is > 4 mM (inactive).
Then `O=C(c1ccco1)N1CCCN(C(=O)c2ccco2)CC1`, with > 4 mM (inactive); and `Cc1nnc(-n2cnc3ccccc32)c2ccccc12`, with > 4 mM (inactive).
For `Cc1cc(C)n(C2CCS(=O)(=O)C2)n1` (stereo not given), the Kd is > 4 mM (inactive).
Consider `Cc1cc(C)nc(/N=C(/N)N2CCC(C(N)=O)CC2)n1`, for which the Kd was > 4 mM (inactive).
Next, `CCC(C)C(NC)C(=O)O` (stereo not given): > 4 mM (inactive); `O=c1c(-c2ccco2)[n+]([O-])c2ccccc2n1O`: > 4 mM (inactive); `Cn1c(C(=O)O)ccc1S(N)(=O)=O`: > 4 mM (inactive).
Take `Cc1cc(C)n2nc(C(=O)NCc3ccco3)nc2n1`: the Kd was > 4 mM (inactive).
Then `O=C(O)c1ccc(-c2cnco2)cc1`, with > 4 mM (inactive); and `Cn1cccc1C(=O)NS(=O)(=O)c1ccccc1Cl`, with > 4 mM (inactive); and `O=C(O)c1cc(=O)c2cccc(O)c2[nH]1`, with > 4 mM (inactive).
Then `O=C(Nc1ccccc1C(F)(F)F)N1CCCCCC1`, with > 4 mM (inactive); and `CSc1ccc(C2NC(=O)CCC2[N+](=O)[O-])cc1` (stereo not given), with > 4 mM (inactive); and `O=C(O)c1cn(-c2ccccc2)nc1-c1cccnc1`, with > 4 mM (inactive).
Consider `CCOC(=O)CN1C(=O)c2ccccc2C1=O`, for which the Kd is > 4 mM (inactive).
As to `CC(=O)Nc1ccc(NC(=O)C2CC2)cc1`, the Kd was > 4 mM (inactive).
`CNC(C)[C@H](O)c1ccccc1` (stereo not given in full): the Kd was > 4 mM (inactive).
Next, `Cc1ccc2cccc(OC(=O)N3CCCC3)c2n1`: > 4 mM (inactive); `NCCc1cnc[nH]1`: > 4 mM (inactive); `NCc1cccc2c1OCCO2`: > 4 mM (inactive).
Then `Cc1onc(-c2c(Cl)cccc2Cl)c1C(N)=O`, with > 4 mM (inactive); and `OCc1ccc2occc2c1`, with > 4 mM (inactive).
Take `O=[N+]([O-])c1cccc2c1nnn2C(CO)OCCO` (stereo not given): the Kd is > 4 mM (inactive).
Then `O=C(Nc1ccc(O)cc1)N1CCOCC1`, with > 4 mM (inactive).
Next, `NN1C(=O)CSC1=Nc1ccccc1`: > 4 mM (inactive); `CN1C(=O)C(Cc2c[nH]c3ccccc23)C(=O)N(C)C1=O`: > 4 mM (inactive).
As for `S=c1nc(C2CC2)[nH]c2ccccc12`, the Kd is > 4 mM (inactive).
Next, `NC(=O)c1cc(N)cc(C(N)=O)c1`: > 4 mM (inactive); `OC[C@@H](O)[C@@H](O[C@@H]1O[C@H](CO)[C@@H](O)[C@H](O)[C@H]1O)[C@H](O)[C@@H](O)CO`: > 4 mM (inactive); `CSc1nnnn1-c1cccc(O)c1`: > 4 mM (inactive).
As for `O=C1C2CC=C(Cl)CC2C(=O)N1c1ccccc1O` (stereo not given), the Kd is > 4 mM (inactive).
As to `CC(=O)O[C@H]1CC[C@@]2(C)C(CC[C@]3(C)C2C(=O)C=C2C4[C@@H](C)[C@H](C)CC[C@]4(C(=O)O)CC[C@]23C)C1(C)C` (stereo not given in full), the Kd is > 4 mM (inactive).
Then `O=C(Nc1cccnc1)c1c(F)c(F)c(F)c(F)c1F`, with > 4 mM (inactive); and `Cc1nnc(SCc2ccon2)n1-c1ccccc1`, with > 4 mM (inactive).
Then `O=C(O)C1(O)C[C@@H](O)C(O)[C@H](O)C1` (stereo not given in full), with > 4 mM (inactive); and `O=C(/C=C/c1ccccc1)c1ccc(O[C@@H]2O[C@H](CO)[C@@H](O)[C@H](O)[C@H]2O)cc1O`, with > 4 mM (inactive).
For `Cc1cc(NS(=O)(=O)Cc2ccccc2)no1`, the Kd was > 4 mM (inactive).
Then `Fc1cccc(Cl)c1CN1CCNCC1`, with > 4 mM (inactive); and `Nc1ccccc1-n1cccn1`, with > 4 mM (inactive); and `Cc1ccc(C)n1/N=C1\NC(=O)CS1`, with > 4 mM (inactive).
Then `CCOC(=O)c1cnc2sccn2c1=O`, with > 4 mM (inactive); and `Cn1cnc2nc3n(c2c1=O)CCC3`, with > 4 mM (inactive).
On to `Cc1occc1C(=O)N1CCC2(CC1)OCCO2`, for which the Kd was > 4 mM (inactive).
Then `COc1nc(N2CCOCC2)nc(N)c1[N+](=O)[O-]`, with > 4 mM (inactive); and `CC(C)c1ccccc1NC(=O)c1cnccn1`, with > 4 mM (inactive).
Next, `COC(=O)c1c(OC)cc2c(c1C)Oc1c(Cl)c(O)c(Cl)c(C)c1C(=O)O2`: > 4 mM (inactive); `Cc1ccc(-c2cc(C(=O)N3CCCC3)no2)cc1`: > 4 mM (inactive); `Cc1ccc(SCC(=O)N2CCOCC2)cc1`: > 4 mM (inactive).
In the case of `Cc1cc(C(=O)Nc2nnc(C(F)(F)F)s2)no1`, the Kd was > 4 mM (inactive).
Then `CCOC(=O)c1c(C)nc2sccn12`, with > 4 mM (inactive); and `O=C1c2ccccc2C(=O)c2c(O)c(O)cc(O)c21`, with > 4 mM (inactive).
Then `O=C(O)CSCc1c(F)cccc1Cl`, with > 4 mM (inactive); and `Nc1ccccc1C(=O)CC(N)C(=O)O` (stereo not given), with > 4 mM (inactive); and `Nc1ccncc1`, with > 4 mM (inactive).
Then `O=C(Nc1ccc(Cl)cc1)N1CCCC1`, with > 4 mM (inactive); and `NS(=O)(=O)c1ccc(N=C2NC(=O)CS2)cc1`, with > 4 mM (inactive); and `Cc1oc(-c2ccccc2)nc1CCO`, with > 4 mM (inactive).
Turning to `Cc1occc1C(=O)NCc1ccccc1F`, the Kd was > 4 mM (inactive).
For the compound `Cc1cc(N)ccc1NC(=O)c1ccco1`, the Kd is > 4 mM (inactive).
`Cc1cc(SCC(=O)c2ccccc2)nc(=O)[nH]1`: the Kd was > 4 mM (inactive).
With `CC(=O)c1cccc(NC2=NCC(C)(C)S2)c1`, the Kd is > 4 mM (inactive).
`COc1cc(OC)c2c(c1Cl)OC1(C2=O)C(O)=CC(=O)CC1C` (stereo not given): the Kd was > 4 mM (inactive).
With `Cc1nc(NC2=NCCC(=O)N2)nc2ccccc12`, the Kd was > 4 mM (inactive).
Next, `O=c1cc(-c2ccccc2)oc2cc(O)c(O)c(O)c12`: > 4 mM (inactive); `CC12CN(CC#N)CC(C)(CN(CC#N)C1)C2=O`: > 4 mM (inactive); `O=C1CSC(=Nc2ccc(O)cc2)N1`: > 4 mM (inactive).
On to `Cc1cccc(-n2c(N)cc(=O)[nH]c2=S)c1`, for which the Kd is > 4 mM (inactive).
Turning to `CC(O)c1ccc(C(C)O)cc1` (stereo not given), the Kd was > 4 mM (inactive).
In the case of `O=C1C(=O)N(CNc2ncccn2)c2ccccc21`, the Kd was > 4 mM (inactive).
As to `CC1CCc2cc(F)ccc2N1C(=O)c1ccc(=O)[nH]n1` (stereo not given), the Kd was > 4 mM (inactive).
Then `Nc1nonc1-c1nc2ccccc2[nH]1`, with > 4 mM (inactive); and `CC(CC(=O)NN)C1(O)CCCCC1` (stereo not given), with > 4 mM (inactive); and `Cc1cc(C(=O)N2CCN(c3ncccn3)CC2)c(C)o1`, with > 4 mM (inactive).
Next, `Nc1nnc(SCc2ccc(F)cc2)s1`: > 4 mM (inactive).
Take `Cc1occc1C(=O)Nc1nnc(C2CCCCC2)s1`: the Kd was > 4 mM (inactive).
Turning to `Cc1ccc(C(=O)N2CC(=O)NC(=O)C2)cc1`, the Kd is > 4 mM (inactive).
Then `O=C(O)Cn1cc(C(=O)c2cccs2)c2ccccc21`, with > 4 mM (inactive); and `Cc1ccc(C)c(C(=O)n2cnnc2N)c1`, with > 4 mM (inactive).
For `CC(C)(C)c1cc(N)n[nH]1`, the Kd was > 4 mM (inactive).
Next, `NCc1csc(-c2ccccc2)n1`: > 4 mM (inactive); `COc1ccc2c(c1)OCc1c-2oc2cc(OC)ccc12`: > 4 mM (inactive); `O=C(NC1=NCCS1)c1ccc(Cl)s1`: > 4 mM (inactive).
Regarding `O=C(Oc1ccc2c(c1)OCC2=O)c1ccccc1`, the Kd was > 4 mM (inactive).
Then `Cc1csc2nc3ccccc3c(=O)n12`, with > 4 mM (inactive); and `CC(=O)CC(=O)N1C(O)CC[N+]1(C)C` (stereo not given), with > 4 mM (inactive).
For `O=C1CSC(=O)N1CNc1ccccc1`, the Kd was > 4 mM (inactive).
As to `O=C(CSc1ncn[nH]1)c1ccc2c(c1)OCCO2`, the Kd was > 4 mM (inactive).
With `Nc1cccc(C(=O)c2ccccc2)c1`, the Kd is > 4 mM (inactive).
Next, `O=C(Nc1cccc(Cl)c1)c1cnn2cccnc12`: > 4 mM (inactive); `NC(=O)CSc1nnc2ccc(-c3ccco3)nn12`: > 4 mM (inactive).
Then `CC(=O)N1CC2(C)CN(C(C)=O)CC(C)(C1)C2`, with > 4 mM (inactive); and `CC(=O)Nc1cc(N2C(=O)C=CC2=O)ccc1Cl`, with > 4 mM (inactive).
Then `CC(C)(C(N)=O)/[N+]([O-])=C\c1ccccc1`, with > 4 mM (inactive); and `O=C(O)c1cccnc1Oc1ccccc1`, with > 4 mM (inactive).
For the compound `CC1=C(/C=C/C(C)=C/C=C/C(C)=C/CO)C(C)(C)CCC1`, the Kd was > 4 mM (inactive).
Then `CCOC(=O)c1ccc(F)cc1F`, with > 4 mM (inactive); and `COc1cc([C@@H]2c3cc4c(cc3[C@H](O)[C@H]3COC(=O)[C@H]23)OCO4)cc(OC)c1OC`, with > 4 mM (inactive).
Next, `COc1cc2c(cc1OC)Cc1cc(OC)c(OC)cc1Cc1cc(OC)c(OC)cc1C2`: > 4 mM (inactive); `O=C(O)CN1C(=O)c2cccc([N+](=O)[O-])c2C1=O`: > 4 mM (inactive); `Nc1ncnc2c1ncn2C1C[C@H](O)[C@@H](CO)O1` (stereo not given in full): > 4 mM (inactive).
Consider `CS(=O)(=O)N1CCN(C(=O)Cc2cccs2)CC1`, for which the Kd is > 4 mM (inactive).
`CCOC(=O)c1c(C)cc(OC)cc1O`: the Kd was > 4 mM (inactive).
